SMILES strings stand for the structures. “Also recorded” adds a separate entry of the source.

This is an account of results in PMC8449414, “Rational design of ASCT2 inhibitors using an integrated experimental-computational approach” (Proceedings of the National Academy of Sciences of the …, 2021).

One experiment concerns the target T1, rEAAT3 (Rattus norvegicus, UniProt P51907).
T1 construct: expressed in transfected cells; host or cells: HEK293 (ATCC CRL-11268), transient transfection
T1 sequence (P51907 1-523): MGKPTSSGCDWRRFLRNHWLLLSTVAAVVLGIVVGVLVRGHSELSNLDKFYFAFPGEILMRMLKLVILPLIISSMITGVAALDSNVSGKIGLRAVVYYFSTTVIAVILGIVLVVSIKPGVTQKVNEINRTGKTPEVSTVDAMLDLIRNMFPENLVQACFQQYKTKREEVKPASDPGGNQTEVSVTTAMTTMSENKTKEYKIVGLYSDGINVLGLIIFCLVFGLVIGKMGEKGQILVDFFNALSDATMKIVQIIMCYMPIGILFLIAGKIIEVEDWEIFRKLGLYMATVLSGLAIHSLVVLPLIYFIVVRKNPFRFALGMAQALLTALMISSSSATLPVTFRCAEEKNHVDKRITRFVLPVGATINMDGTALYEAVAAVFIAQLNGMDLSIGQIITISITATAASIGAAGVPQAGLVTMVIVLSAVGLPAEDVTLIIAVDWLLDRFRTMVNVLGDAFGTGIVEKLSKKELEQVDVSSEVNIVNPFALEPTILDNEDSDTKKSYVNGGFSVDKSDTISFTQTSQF
As to the kind of experiment: Electrophysiology: SLC1 specificity, anion current in transfected HEK293 cells. Format: cell-based. Particulars: 0 mV, 10 mM glutamate and 130 mM NaSCN internal, No current = no outward current up to highest concentration tested (§ 20-50, || 100-400, # 1500-2500 µM); for Ki: read-out: Binding affinity Ki. The procedure:
(§1) We also tested the specificity of Lc-BPE for ASCT2 over other SLC1 family members (ASCT1, EAAT1-3, and EAAT5).
(§2) Fig. S3. SLC-1 specificity of Lc-BPE. (A) Electrophysiological current responses to the application of 100 µM glutamate (red trace) or varying concentrations of Lc-BPE (black, blue and red traces) to rEAAT1-expressing cells HEK293 cells. (B-C) Dose response curves obtained from currents recorded a fter application of Lc-BPE extracellularly to cells transiently expressing hASCT2, rASCT2, hASCT1 (panel B) and rEAAT1, rEAAT2, rEAAT3 and hEAAT5 (panel C) respectively. For hASCT2, rASCT2 and hASCT1, intracellular pipette solution contained 10 mM alanine and 130 mM NaSCN. For rEAAT1, rEAAT2, rEAAT3 and hEAAT5, intracellular solution contained 10 mM glutamate and 130 mM NaSCN. Extracellular solution was the same for all the experiments (140 mM NaCl). The voltage was 0 mV. […]
(§3) Cell culture and transfection
(§4) Human embryonic kidney 293 (HEK293, ATCC CRL -11268) cells were cultured in DMEM media supplemented with 10% (v/v) fetal bovine serum (FBS), 2 mM glutamine, 1% penicillin streptomycin solution, 1 mM sodium pyruvate and non -essential amino acids. Cells were maintained at 370C in a fully humidified atmosphere containing 5% CO2. rASCT2, hASCT2, hASCT1, EAAT1, EAAT2, EAAT3, EAAT5 and YFP complementary DNAs were each used to transiently transfect HEK293 using POLYPLUS Jet-prime transfection reagent. Cells were analyzed using electrophysiological techniques 24-40 hours after transfection.
(§5) Electrophysiological techniques
(§6) Electrophysiological experiments were performed as described previously 1,2. Stock solutions of inhibitor was prepared in dimethyl sulfoxide (DMSO) up to 100 mM.
(§7) Dilutions to working concentrations were made using external buffer. The highest […]
(§8) cells. For rASCT2, hASCT2 and hASCT1, external buffer contained 140 mM NaCl, 2 mM MgCl2, 2 mM CaCl2, and 10 mM HEPES, pH 7.40 while internal pipette solution comprised of 130 mM NaSCN, 2 mM MgCl2, 10 mM EGTA, 10 mM HEPES and 10mM alanine, pH 7.40. For specificity experiments with EAAT1, EAAT2, EAAC1 and EAAT5, internal solution contained 10 mM glutamate instead of alanine. Compounds were applied to HEK293 cells expressing DNA of interest suspended from a current recording electrode in whole cell configuration44 through a rapid solution exchange device described previously45. Cells are immersed in external buffer bath used to dissolve the inhibitors. The open pipette resistance was between 3 and 6 MΩ. Series resistance was not compensated in these experiments due to relatively small currents. Current s traces were recorded using an Adams and List EPC7 amplifier and digitized using a Molecular Devices Digidata A/D converter.
(§9) Data analysis was performed as described previously 46. Linear and nonlinear curve fitting of the experimental data were analyzed using MicroCal Origin software. Linear plots were fitted using the general equation (y = a + bx) obtaining adjusted R 2 and Pearson’s r values. Nonlinear dose–response relationships were fitted with a Michaelis – Menten-like equation to obtain apparent Ki values in the absence of substrate. For competition studies, equation I = I1 + I2 [Inh]/(Ki + [Inh]) was used for fitting, where I1 is the alanine induced current without the inhibitor, and I2 is the maximum current in the presence of saturating inhibitor concentration, [Inh]max 1,2. At least five experiments were performed for each compound. Unless stated otherwise, the error bars in all our graphs represent mean ± SD .
(§10) ASCT2 expression and purification
(§11) Human ASCT2 (hASCT2) was produced in Pichia pastoris X-33 strain (Invitrogen) in fermentor26 and purified using DDM and CHS (Anatrace) and 1 mM L-glutamine (Merck) to maintain protein stability 27. Membranes representing ~1.5 g cells were solubilized in buffer A (25 mM Tris-HCl, pH 7.4, 300 mM NaCl, 10% (vol/vol) glycerol, 1 mM L - glutamine, 1% DDM and 0.1% CHS) for 1 h at 4 °C; ultracentrifuged (30 min, 442,907 × […]

For another experiment, the target named is T2, rEAAT1 (Rattus norvegicus, UniProt P24942).
T2 construct: expressed in transfected cells; host or cells: HEK293 (ATCC CRL-11268), transient transfection
T2 sequence (P24942 1-543): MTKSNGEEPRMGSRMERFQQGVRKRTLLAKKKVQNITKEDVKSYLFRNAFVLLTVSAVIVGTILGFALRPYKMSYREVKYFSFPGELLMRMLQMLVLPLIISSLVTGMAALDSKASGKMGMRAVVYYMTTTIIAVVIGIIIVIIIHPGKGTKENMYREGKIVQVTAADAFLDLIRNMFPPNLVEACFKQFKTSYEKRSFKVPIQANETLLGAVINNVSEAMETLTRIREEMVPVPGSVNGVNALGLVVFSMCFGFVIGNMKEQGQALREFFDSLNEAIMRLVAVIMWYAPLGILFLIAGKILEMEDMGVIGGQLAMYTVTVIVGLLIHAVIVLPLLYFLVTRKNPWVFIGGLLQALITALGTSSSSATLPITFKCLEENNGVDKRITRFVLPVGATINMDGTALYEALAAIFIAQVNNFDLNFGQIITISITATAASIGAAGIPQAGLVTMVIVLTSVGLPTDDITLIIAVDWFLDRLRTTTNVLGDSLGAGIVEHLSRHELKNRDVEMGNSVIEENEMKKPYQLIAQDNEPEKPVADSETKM
The experiment is described as above. The class given is cell-based. Particulars: 0 mV, 10 mM glutamate and 130 mM NaSCN internal, No current = no outward current up to highest concentration tested (§ 20-50, || 100-400, # 1500-2500 µM); for Ki: read-out: Binding affinity Ki. The protocol:
as §1, §2, §3, §4, §5, §6, §7, §8, §9, §10, §11

Turning to `O=C(O[C@@H]1CN[C@H](C(=O)O)C1)c1ccc(OCc2ccccc2)cc1` [ERA-31], the “Binding affinity Ki” value on rEAAT3 and at rEAAT1 was “No current” each time.

In the case of `O=C(O[C@H]1CN[C@H](C(=O)O)C1)c1ccc(C(=O)c2ccccc2)cc1` [ERA-35], the “Binding affinity Ki” value at rEAAT3 and at rEAAT1 was “No current” each time.

On to `O=C(O[C@@H]1CN[C@H](C(=O)O)C1)C(c1ccccc1)c1ccccc1` [ERA-29], for which the “Binding affinity Ki” value at rEAAT3 and at rEAAT1 was “No current” each time.

Consider `O=C(O[C@@H]1CN[C@H](C(=O)O)C1)c1ccccc1-c1ccccc1` [ERA-3], for which the “Binding affinity Ki” value on rEAAT3 and on rEAAT1 was “No current” each time.

What is called Ki is a measure of affinity in units of concentration, obtained from inhibition or displacement. In the case of `O=C(O[C@@H]1CN[C@H](C(=O)O)C1)c1ccc(C(O)c2ccccc2)cc1` (some centres unmarked) [ERA-9], on rEAAT3, the “Binding affinity Ki” value is “No current; also recorded: No inhibitory activity was detected”. Moreover, at rEAAT1, the Ki is 39.5 µM.

Take `O=C(O[C@@H]1CN[C@H](C(=O)O)C1)c1ccc(-c2ccc(C(F)(F)F)cc2)cc1` [ERA-5]: the Ki on rEAAT3 turned out to be 1.25 ± 0.24 µM; on rEAAT1, 1 ± 0.25 µM.

Turning to `N[C@@H](COC(=O)c1ccccc1)C(=O)O` [ERA-25], the Ki was 656 ± 115 µM on rEAAT3 and 195 ± 48.4 µM at rEAAT1.

As for `Cc1ccccc1-c1ccc(C(=O)O[C@@H]2CN[C@H](C(=O)O)C2)cc1` [ERA-6], the Ki is 1.99 ± 0.36 µM on rEAAT3 and 1 ± 0.11 µM at rEAAT1.

Take `O=C(O[C@@H]1CN[C@H](C(=O)O)C1)c1ccc(Oc2ccccc2)cc1` [ERA-16]: the inhibition constant Ki at rEAAT3 was 10.3 ± 2.15 µM; at rEAAT1, 8.18 ± 1.77 µM.

As to `N[C@@H](COC(=O)c1cccnc1)C(=O)O` [ERA-28], the “Binding affinity Ki” value on rEAAT3 and on rEAAT1 was “No current” each time.

For the compound `O=C(O[C@@H]1CN[C@H](C(=O)O)C1)c1ccc(-c2ccc(F)cc2)cc1` [ERA-4], the Ki was determined as 0.69 ± 0.07 µM on rEAAT3 and 0.4 ± 0.07 µM at rEAAT1.

For `O=C(Nc1ccc(C(=O)O[C@@H]2CN[C@H](C(=O)O)C2)cc1)c1ccc(C(F)(F)F)cc1` [ERA-11], the “Binding affinity Ki” value at rEAAT3 is reported as “No current”. In addition, on rEAAT1, the Ki was 9.6 ± 7.5 µM.

For `N[C@@H](COC(=O)c1ccc(NC(=O)c2ccccc2)cc1)C(=O)O` [ERA-21], the Ki on rEAAT3 worked out at 12.3 ± 1.86 µM; on rEAAT1 it was 9.57 ± 1.61 µM.
